From ChEMBL document CHEMBL6134910, “Discovery of a New Class of Orexin 2 Receptor Agonists as a Potential Treatment for Narcolepsy” (J Med Chem, 2025)

The compounds below were run against Cytochrome P450 2D6 (Homo sapiens, UniProt P10635) (assay: Inhibition of CYP2D6 in human liver microsome using dextrometorphan as substrate incubated for 30 mins by LC-MS/MS analysis).
Type: ADME, microsomes

Chain of Cytochrome P450 2D6 (P10635 whole entry): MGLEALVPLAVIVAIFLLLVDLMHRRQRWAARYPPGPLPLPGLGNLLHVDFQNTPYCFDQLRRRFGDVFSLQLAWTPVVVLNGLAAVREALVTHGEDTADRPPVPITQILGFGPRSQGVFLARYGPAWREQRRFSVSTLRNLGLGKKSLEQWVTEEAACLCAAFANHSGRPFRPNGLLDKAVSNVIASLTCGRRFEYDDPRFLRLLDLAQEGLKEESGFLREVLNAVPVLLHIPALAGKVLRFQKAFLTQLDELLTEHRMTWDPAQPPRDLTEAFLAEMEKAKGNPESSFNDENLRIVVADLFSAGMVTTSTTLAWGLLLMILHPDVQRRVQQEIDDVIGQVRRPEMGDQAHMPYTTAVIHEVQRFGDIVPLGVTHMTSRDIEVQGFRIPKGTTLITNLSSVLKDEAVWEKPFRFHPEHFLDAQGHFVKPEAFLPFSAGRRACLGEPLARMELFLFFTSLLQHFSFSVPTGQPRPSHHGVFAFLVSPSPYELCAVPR

Question: How did the IC50 turn out when `Cn1nnc(-c2oncc2CC(=O)N(C2CC3(CC3)C2)[C@@H](C(=O)NC23CC(C)(C2)C3)c2cc(F)ccc2F)n1` was run?
Answer: 20 µM

Question: With `Cn1nnc(-c2c(CC(=O)N(C3CC4(CC4)C3)[C@@H](C(=O)NC34CC(C)(C3)C4)c3ccccc3Cl)cnn2C)n1` as the compound, how does the IC50 read?
Answer: 5.3 µM

The compounds below were run against T1, Orexin/Hypocretin receptor type 1 (Homo sapiens, UniProt O43613) (assay: Agonist activity at human OX1 receptor expressed in HEK293 cells assessed as IP-1 accumulation incubated for […] by HTRF IP-one Gq detection assay).
T1 sequence (O43613 whole entry): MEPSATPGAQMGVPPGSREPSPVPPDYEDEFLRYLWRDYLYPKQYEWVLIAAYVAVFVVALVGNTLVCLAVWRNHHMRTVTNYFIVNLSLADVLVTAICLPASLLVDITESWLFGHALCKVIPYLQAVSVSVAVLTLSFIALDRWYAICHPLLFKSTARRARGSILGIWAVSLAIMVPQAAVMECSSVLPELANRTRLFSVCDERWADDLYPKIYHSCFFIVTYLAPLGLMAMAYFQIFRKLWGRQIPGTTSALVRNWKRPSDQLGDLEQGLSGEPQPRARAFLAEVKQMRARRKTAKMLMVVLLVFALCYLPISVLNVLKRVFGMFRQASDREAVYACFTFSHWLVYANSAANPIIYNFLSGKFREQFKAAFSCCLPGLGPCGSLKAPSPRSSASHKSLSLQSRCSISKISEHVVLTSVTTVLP
Type: functional, cell-based

Question: With `Cn1nnc(-c2oncc2CC(=O)N(C2CC3(CC3)C2)[C@@H](C(=O)NC23CC(C)(C2)C3)c2cc(F)ccc2F)n1` as the compound, how does the EC50 read?
Answer: > 20 µM

Question: Which EC50 does the source give for `Cn1nnc(-c2c(CC(=O)N(C3CC4(CC4)C3)[C@@H](C(=O)NC34CC(C)(C3)C4)c3ccccc3Cl)cnn2C)n1` here?
Answer: > 20 µM

What follows are compounds tested against T2, Orexin receptor type 2 (Homo sapiens, UniProt O43614) (assay: Agonist activity at human OX2 receptor expressed in HEK293 cells assessed as IP-1 accumulation incubated for […] by HTRF IP-one Gq detection assay).
T2 sequence (O43614 whole entry): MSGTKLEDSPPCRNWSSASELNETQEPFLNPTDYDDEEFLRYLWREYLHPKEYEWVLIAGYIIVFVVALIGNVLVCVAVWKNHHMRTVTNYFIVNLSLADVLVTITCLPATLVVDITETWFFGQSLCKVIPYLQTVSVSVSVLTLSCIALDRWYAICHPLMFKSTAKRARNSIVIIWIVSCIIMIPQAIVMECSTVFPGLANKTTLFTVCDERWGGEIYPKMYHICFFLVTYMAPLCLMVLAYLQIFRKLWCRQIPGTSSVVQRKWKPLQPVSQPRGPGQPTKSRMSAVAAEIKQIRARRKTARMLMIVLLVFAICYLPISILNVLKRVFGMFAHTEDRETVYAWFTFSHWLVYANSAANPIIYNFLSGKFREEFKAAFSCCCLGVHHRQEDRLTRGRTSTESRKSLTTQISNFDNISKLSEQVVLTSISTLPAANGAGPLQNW
Type: functional, cell-based

Question: For `Cn1ncc(CC(=O)N(C2CCCC2)C(C(=O)NC23CC(C)(C2)C3)C2CCCC2)c1-c1ccccc1` (centres undefined), which EC50 is on record?
Answer: > 20 µM

Each compound was assayed against Cytochrome P450 2C9 (Homo sapiens, UniProt P11712) (assay: Inhibition of CYP2C9 in human liver microsome using diclofenac as substrate incubated for 6 mins by LC-MS/MS analysis).
Type: ADME, microsomes

Chain of Cytochrome P450 2C9 (P11712 whole entry): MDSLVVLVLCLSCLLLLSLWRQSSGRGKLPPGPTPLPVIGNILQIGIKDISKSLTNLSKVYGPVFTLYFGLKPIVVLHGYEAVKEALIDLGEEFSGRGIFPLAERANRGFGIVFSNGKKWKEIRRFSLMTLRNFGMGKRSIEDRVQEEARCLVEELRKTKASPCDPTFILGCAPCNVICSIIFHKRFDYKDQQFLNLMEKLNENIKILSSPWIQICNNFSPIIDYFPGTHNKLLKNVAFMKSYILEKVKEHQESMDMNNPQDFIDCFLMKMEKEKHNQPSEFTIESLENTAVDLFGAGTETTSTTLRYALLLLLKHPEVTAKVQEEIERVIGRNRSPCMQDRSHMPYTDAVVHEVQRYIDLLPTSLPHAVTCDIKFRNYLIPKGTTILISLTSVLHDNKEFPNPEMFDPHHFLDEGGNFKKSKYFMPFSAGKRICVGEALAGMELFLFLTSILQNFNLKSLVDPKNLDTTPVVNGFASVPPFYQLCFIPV

Question: How did the IC50 turn out when `Cn1nnc(-c2oncc2CC(=O)N(C2CC3(CC3)C2)[C@@H](C(=O)NC23CC(C)(C2)C3)c2cc(F)ccc2F)n1` was run?
Answer: 24 µM

Question: Which IC50 does the source give for `Cn1nnc(-c2c(CC(=O)N(C3CC4(CC4)C3)[C@@H](C(=O)NC34CC(C)(C3)C4)c3ccccc3Cl)cnn2C)n1` here?
Answer: 20 µM

The compounds below were run against Cytochrome P450 3A4 (Homo sapiens, UniProt P08684) (assay: Inhibition of CYP3A4 in human liver microsome using testosterone as substrate incubated for 7 mins).
Type: ADME, microsomes

Chain of Cytochrome P450 3A4 (P08684 whole entry): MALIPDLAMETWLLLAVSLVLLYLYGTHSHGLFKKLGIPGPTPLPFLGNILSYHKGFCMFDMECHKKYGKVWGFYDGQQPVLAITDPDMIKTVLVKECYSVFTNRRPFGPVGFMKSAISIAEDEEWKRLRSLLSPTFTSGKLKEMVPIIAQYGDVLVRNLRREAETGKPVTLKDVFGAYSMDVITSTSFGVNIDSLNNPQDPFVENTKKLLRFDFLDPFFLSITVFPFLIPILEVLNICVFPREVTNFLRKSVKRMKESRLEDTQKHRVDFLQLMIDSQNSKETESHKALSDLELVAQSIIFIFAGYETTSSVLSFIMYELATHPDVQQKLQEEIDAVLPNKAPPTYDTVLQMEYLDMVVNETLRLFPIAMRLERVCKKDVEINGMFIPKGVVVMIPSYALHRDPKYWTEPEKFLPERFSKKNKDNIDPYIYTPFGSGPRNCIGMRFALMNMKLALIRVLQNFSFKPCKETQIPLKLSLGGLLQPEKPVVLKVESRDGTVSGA

Question: Which IC50 does the source give for `Cn1ccc(-c2c(CC(=O)N(C3CCCC3)C(C(=O)NC34CC(C)(C3)C4)c3ccccc3)cnn2C)n1` (centres undefined) here?
Answer: 2.5 µM

Question: With `Cn1ncc(CC(=O)N(C2CCCC2)C(C(=O)NC23CC(C)(C2)C3)c2ccccc2)c1-c1c(F)cccc1F` (centres undefined) as the compound, how does the IC50 read?
Answer: 7 µM

Question: How did the IC50 turn out when `CC(C)N(C(=O)Cc1cnn(C)c1-c1ccccc1)[C@@H](c1cn(C23CC(C)(C2)C3)nn1)c1cc(F)ccc1F` was run?
Answer: 1 µM

Question: `CC12CC(NC(=O)[C@@H](c3ccccc3)N(C(=O)Cn3cnc(Cl)c3-c3ccccc3)C3CCCC3)(C1)C2` was tested. Which IC50 did it give?
Answer: 18 µM

Question: Which IC50 does the source give for `COc1cccc(-c2c(CC(=O)N(C3CCCC3)C(C(=O)NC34CC(C)(C3)C4)c3ccccc3)cnn2C)c1` (centres undefined) here?
Answer: 1.5 µM

Question: For `CC12CC(NC(=O)[C@@H](c3ccccc3)N(C(=O)Cc3cnnn3-c3ccccc3)C3CCCC3)(C1)C2`, which IC50 is on record?
Answer: 1.6 µM

Question: For `CC12CC(NC(=O)[C@@H](c3ccccc3)N(C(=O)Cc3cnoc3-c3ccccc3)C3CCCC3)(C1)C2`, which IC50 is on record?
Answer: 1.9 µM

Question: With `Cn1ncc(CC(=O)N(C2CCCC2)[C@@H](C(=O)NC23CC(C)(C2)C3)c2ccccc2)c1-n1nccn1` as the compound, how does the IC50 read?
Answer: 4 µM

Question: For `Cn1ncc(CC(=O)N(C2CCCC2)C(C(=O)NC23CC(C)(C2)C3)c2ccccc2)c1-c1ccc(F)cc1F` (centres undefined), which IC50 is on record?
Answer: 1.6 µM

Question: For `Cc1ncn(CC(=O)N(C2CCCC2)[C@@H](C(=O)NC23CC(C)(C2)C3)c2ccccc2)c1-c1ccccc1`, which IC50 is on record?
Answer: 7.3 µM

Question: For `CC12CC(NC(=O)[C@@H](c3ccccc3)N(C(=O)Cc3cnn(C(F)F)c3-c3ccccc3)C3CCCC3)(C1)C2`, which IC50 is on record?
Answer: 2 µM

Question: How did the IC50 turn out when `O=C(NC1CCCCC1)[C@@H](c1ccccc1)N(C[C@H]1CCCO1)C(=O)Cn1cncc1-c1ccccc1` was run?
Answer: 0.25 µM

Question: How did the IC50 turn out when `O=C(NC1CCCCC1)[C@@H](c1ccccc1)N(C[C@H]1CCCO1)C(=O)Cn1cnc2ccccc21` was run?
Answer: 10 µM

Question: With `Cn1ncc(CC(=O)N(C2CCCC2)[C@@H](C(=O)NC23CC(C)(C2)C3)c2ccccc2)c1-c1ccccc1` as the compound, how does the IC50 read?
Answer: 5 µM

Question: `Cn1ncc(CC(=O)N(C2CCCC2)C(C(=O)NC23CC(C)(C2)C3)c2ccccc2)c1-c1ncccn1` (centres undefined) was tested. Which IC50 did it give?
Answer: 6.8 µM

Question: For `CC(C)N(C(=O)Cc1cnn(C)c1-c1ccccc1)[C@@H](C(=O)NC12CC(C)(C1)C2)c1cc(F)ccc1F`, which IC50 is on record?
Answer: 0.3 µM

Question: `Cc1nsc(CC(=O)N(C2CCCC2)[C@@H](C(=O)NC23CC(C)(C2)C3)c2ccccc2)c1-c1ccccc1` was tested. Which IC50 did it give?
Answer: 1.4 µM

Question: `COc1cccc(-c2c(CC(=O)N(C3CCCC3)C(C(=O)NC34CC(C)(C3)C4)c3ccccc3)cnn2C)c1F` (centres undefined) was tested. Which IC50 did it give?
Answer: 0.9 µM

Question: For `Cn1ncc(CC(=O)N(C2CCCC2)[C@@H](C(=O)NC23CC(C)(C2)C3)c2ccccc2)c1-c1cccnc1`, which IC50 is on record?
Answer: 7.6 µM

Question: Which IC50 does the source give for `Cn1nnc(-c2c(CC(=O)N(C3CCCC3)C(C(=O)NC34CC(C)(C3)C4)c3ccccc3)cnn2C)n1` (centres undefined) here?
Answer: 12 µM

Question: Which IC50 does the source give for `Cc1ncn(CC(=O)N(C[C@H]2CCCO2)[C@@H](C(=O)NC2CCCCC2)c2ccccc2)c1-c1ccccc1` here?
Answer: 7.3 µM

Question: For `Cn1ncc(CC(=O)N(C2CCCC2)C(C(=O)NC23CC(C)(C2)C3)c2ccccc2)c1-c1coc(C2CC2)n1` (centres undefined), which IC50 is on record?
Answer: 4.2 µM
